# Data from patent US20190365675A1, “COMPOSITIONS FOR THE PREVENTION AND/OR TREATMENT OF ALCOHOL USE DISORDERS” (SERVICIO ANDALUZ DE SALUD, priority 2016, published 2019).
# Legend:
# TLR4 = TLR4 mRNA and protein expression in frontal cortex after ethanol intoxication; type: in vivo, Wistar rats; conditions: 2-4 h after last ethanol, OEA pre-treatment
# Description: The animals were treated with intragastric (i.g.) ethanol 3 times a day using an i.g. cannula (16G needle, Fisher Scientific, Waltham, Mass., USA), following a protocol based on a slightly modified standard 4-day alcohol intoxication pattern (Bernier et al., 2002a, b) (FIG. 1A). The ethanol doses were administered every 8 h for a total time of 4 days. The rats treated with ethanol received an initial loading dose of 5 g/kg of ethanol in a 30% solution (w/v) and then a maximum maintenance dose of 3 g/kg, which were determined based on blood ethanol levels (BEL). This repeated standard alcohol intoxication paradigm kept BEL intoxication relatively constant in a range of sedation/ataxia (190 to 430 mg/dl, Table 3), according to the 6-point alcohol intoxication behavior scale (Majchrowicz, 1975). The mean dose of ethanol/rat/day (days 1-4) was 7.06 g/kg, similar to other studies (Obernier et al., 2002a, b). […] The autoradiograph was quantified by densitometry (NIH ImageJ® software, National Biosciences, Lincoln, Nebr. USA) and expressed as optical density (OD). […] The quantitative changes in mRNA levels were estimated by means of RT-PCR, carried out in the presence of the SYBR green primer using a 20-L reaction in a Rotor-Gene (Corbett Research®, Mortlake, NSW, Australia). […]
# NF-kB p65 subunit = assay: NF-κB p65 mRNA and nuclear activity (ELISA-based kit) in frontal cortex after ethanol intoxication; type: in vivo, Wistar rats
# Description: The animals were treated with intragastric (i.g.) ethanol 3 times a day using an i.g. cannula (16G needle, Fisher Scientific, Waltham, Mass., USA), following a protocol based on a slightly modified standard 4-day alcohol intoxication pattern (Bernier et al., 2002a, b) (FIG. 1A). The ethanol doses were administered every 8 h for a total time of 4 days. The rats treated with ethanol received an initial loading dose of 5 g/kg of ethanol in a 30% solution (w/v) and then a maximum maintenance dose of 3 g/kg, which were determined based on blood ethanol levels (BEL). This repeated standard alcohol intoxication paradigm kept BEL intoxication relatively constant in a range of sedation/ataxia (190 to 430 mg/dl, Table 3), according to the 6-point alcohol intoxication behavior scale (Majchrowicz, 1975). […] The quantitative changes in mRNA levels were estimated by means of RT-PCR, carried out in the presence of the SYBR green primer using a 20-L reaction in a Rotor-Gene (Corbett Research®, Mortlake, NSW, Australia). […] The nuclear extracts of the frontal cortex were incubated with specific NF-kB p65 subunit response element probes, and the binding of p65 to its probe was detected using an antibody specific for this subunit. A secondary antibody labeled by means of horseradish peroxidase was added, and the binding was detected by means of spectrophotometry at 450 nm. […]
smiles,measurement,setting,value
"CCCCCCCC/C=C\CCCCCCCC(=O)NCCO [OEA, oleoylethanolamide]",Ethanol-induced TLR4 protein expression,TLR4,reduce
same,Ethanol-induced overexpression of TLR-4 mRNA,TLR4,reduce
same,Ethanol-induced increase in nuclear activity of p65,"NF-kB p65 subunit; frontal cortex nuclear extracts, OEA pre-treatment",counteracted
same,Ethanol-induced increase in p65 mRNA levels,"NF-kB p65 subunit; frontal cortex, OEA pre-administration",partially prevented
